Results on 20 compounds are retold here after article PMC8765781, “A platform of assays for the discovery of anti-Zika small-molecules with activity in a 3D-bioprinted outer-blood-retina model” (PLoS ONE, 2022).

One may read the AC50 as the concentration at which the activity in the assay is half-maximal.

In assay [1] the test system is Vero cells.
In assay [2] the test system is ZIKV-RLuc (Cambodian strain FSS13025). As to the kind of experiment: microbe, parasite or virus in culture. The format is cell-based, Zika virus. The following applies: for AC50: Zika virus, Vero.
Where [3] appears, read: read-out: Log AC50 (M) (converted).

Read-outs that look alike come from different tables or passages of the source.

As for `CC(NCc1ccc2c(c1)[nH]/c(=N\C(=O)c1ccc(-c3cn[nH]c3)s1)n2CC(C)(C)O)C(C)(C)C` (stereo not shown) [NCGC00188382-05], in assay [1], half-maximal activity (AC50) was put at 1.47 µM and the “Log AC50 (M)” value is given as -5.8327 M. For the same compound, in assay [2], the “CC-v2 (curve class classification v2 of the dose response curve)” value (shortened to “CC-v2”) is reported as -1.1; the “Efficacy (difference between neutral response and maximum compound response)” value is given as -97.056; the “Max Resp (difference between neutral response and compound response for highest compound concentration)” value is reported as -99.599; the concentration at half-maximal activity (AC50) came out at 1.47e-06 M. Moreover, the AC50 in assay [2] (setting [3]) is 1.47e-06 M.
As to `Oc1cc(O)cc(CCCCC/C=C\CCCCCCCc2cc(O)cc(O)c2)c1` [NCGC00385180-01], the “Log AC50 (M)” value in assay [1] was -4.4327 M. For the same compound, in assay [2], the “CC-v2” value was -3; the “Efficacy (difference between neutral response and maximum compound response)” value is recorded as -110.94; the “Max Resp (difference between neutral response and compound response for highest compound concentration)” value is reported as -89.374; the activity was half-maximal at 3.69e-05 M (AC50). In addition, the AC50 in assay [2] (setting [3]) was 3.69e-05 M.
In the case of `NC(=O)C1(N2CCCCC2)CCN(CCCN2c3ccccc3CCc3ccc(Cl)cc32)CC1` [NCGC00253595-01], in assay [1], the “Log AC50 (M)” value is -4.5827 M. For the same compound, in assay [2], the “CC-v2” value is -3; the “Efficacy (difference between neutral response and maximum compound response)” value is -112.083; the “Max Resp (difference between neutral response and compound response for highest compound concentration)” value is reported as -100.465; half-maximal activity (AC50) was put at 2.61e-05 M. The half-maximal activity concentration (AC50) in assay [2] (setting [3]) was 2.61e-05 M.
Consider `CCCCCCCCCCCC(CC1OC(=O)C1CCCCCC)OC(=O)C(CC(C)C)NC=O` (stereo not shown) [NCGC00095128-04], for which, in assay [1], the concentration at half-maximal activity (AC50) came out at 29.3 µM and the “Log AC50 (M)” value is reported as -4.5327 M. In assay [2], the “CC-v2” value is -2.1; the “Efficacy (difference between neutral response and maximum compound response)” value is -95.825; the “Max Resp (difference between neutral response and compound response for highest compound concentration)” value is listed as -91.668; the AC50 was determined as 2.93e-05 M. Also, in assay [2] (setting [3]), the AC50 was 2.93e-05 M.
With `COC(=O)C1(Cc2ccc(O)c(CC=C(C)C)c2)OC(=O)C(OC)=C1c1cc(O)c(O)c(CC=C(C)C)c1` (stereo not shown) [NCGC00347732-02], in assay [1], half-maximal activity (AC50) was put at 9.28 µM and the “Log AC50 (M)” value is reported as -5.0327 M. Besides, in assay [2], the “CC-v2” value is on record as -1.1; the “Efficacy (difference between neutral response and maximum compound response)” value is given as -101.002; the “Max Resp (difference between neutral response and compound response for highest compound concentration)” value was -99.456; the concentration at half-maximal activity (AC50) was 9.28e-06 M. Also, the AC50 in assay [2] (setting [3]) is 9.27e-06 M.
With `CC(=O)N(C)C1(c2ccccc2)CCN(CCC[C@]2(c3ccc(Cl)c(Cl)c3)CCCN(C(=O)c3ccccc3)C2)CC1` [NCGC00263110-01], in assay [1], the AC50 was 18.5 µM and the “Log AC50 (M)” value is recorded as -4.7327 M. In assay [2], the “CC-v2” value is -2.1; the “Efficacy (difference between neutral response and maximum compound response)” value is listed as -124.29; the “Max Resp (difference between neutral response and compound response for highest compound concentration)” value is listed as -100.789; the AC50 stood at 1.85e-05 M. For the same compound, the AC50 in assay [2] (setting [3]) is 1.85e-05 M.
For `CC(C)(C)OC(=O)Nc1ccc(-c2cc(C(=O)NCCCCCCC(=O)NO)no2)cc1` [NCGC00250390-04], in assay [1], the activity was half-maximal at 2.09 µM (AC50) and the “Log AC50 (M)” value is listed as -5.6796 M. Also, in assay [2], the “CC-v2” value is reported as -2.2; the “Efficacy (difference between neutral response and maximum compound response)” value is reported as -83.763; the “Max Resp (difference between neutral response and compound response for highest compound concentration)” value is recorded as -67.554; half-maximal activity (AC50) was put at 2.09e-06 M. Also, the AC50 in assay [2] (setting [3]) is 2.09e-06 M.
Turning to `ClC1=C(Cl)[C@]2(Cl)[C@@H]3[C@@H]4C[C@@H]([C@H]5O[C@@H]45)[C@@H]3[C@@]1(Cl)C2(Cl)Cl` [NCGC00244579-01], in assay [1], the AC50 stood at 75.9 µM and the “Log AC50 (M)” value is reported as -4.1199 M. In assay [2], the “CC-v2” value was -3; the “Efficacy (difference between neutral response and maximum compound response)” value is on record as -117.983; the “Max Resp (difference between neutral response and compound response for highest compound concentration)” value is given as -96.11; the activity was half-maximal at 7.59e-05 M (AC50). The AC50 in assay [2] (setting [3]) is 7.59e-05 M.
In the case of `CCCCC/C=C/C(=O)CCc1ccc(O)c(OC)c1` [NCGC00169591-02], in assay [1], the AC50 worked out at 18.5 µM and the “Log AC50 (M)” value is -4.7327 M. Besides, in assay [2], the “CC-v2” value was -2.1; the “Efficacy (difference between neutral response and maximum compound response)” value is recorded as -87.809; the “Max Resp (difference between neutral response and compound response for highest compound concentration)” value is recorded as -86.687; the AC50 was determined as 1.85e-05 M. In assay [2] (setting [3]), the half-maximal activity concentration (AC50) is 1.85e-05 M.
Take `COc1cc(C(C)C)c2c(c1)[S+](=O)([O-])N(COc1cc(=O)n3cccc(OCCN4CCCCC4)c3n1)C2=O` [NCGC00167751-03]: in assay [1], the AC50 was found to be 23.3 µM and the “Log AC50 (M)” value is recorded as -4.6327 M. In assay [2], the “CC-v2” value was -2.1; the “Efficacy (difference between neutral response and maximum compound response)” value is listed as -105.384; the “Max Resp (difference between neutral response and compound response for highest compound concentration)” value is recorded as -99.738; half-maximal activity (AC50) was put at 2.33e-05 M. For the same compound, the AC50 in assay [2] (setting [3]) was 2.33e-05 M.
With `CN(C)C1CCN(CCCOc2ccc(-c3ccc(C#N)cc3)cc2)C1` (stereo not shown) [NCGC00165730-02], in assay [1], the AC50 amounted to 36.9 µM and the “Log AC50 (M)” value is given as -4.4327 M. In assay [2], the “CC-v2” value is listed as -3; the “Efficacy (difference between neutral response and maximum compound response)” value is listed as -68.814; the “Max Resp (difference between neutral response and compound response for highest compound concentration)” value is on record as -57.023; the activity was half-maximal at 3.69e-05 M (AC50). The concentration at half-maximal activity (AC50) in assay [2] (setting [3]) was 3.69e-05 M.
Regarding `CCCCCCCCCCC(C)(C)C(=O)Nc1c(OC)cc(OC)cc1OC` [NCGC00092343-02], the “Log AC50 (M)” value in assay [1] was -4.4327 M. In assay [2], the “CC-v2” value is -3; the “Efficacy (difference between neutral response and maximum compound response)” value was -55.755; the “Max Resp (difference between neutral response and compound response for highest compound concentration)” value is given as -44.379; half-maximal activity (AC50) was put at 3.69e-05 M. Moreover, the AC50 in assay [2] (setting [3]) is 3.69e-05 M.
On to `COc1cc(OC2CCN(C)CC2)ccc1Nc1ncc2c(n1)n(C1CCCC1)c(=O)n2C` [NCGC00263090-01], for which, in assay [1], half-maximal activity (AC50) was put at 6.76 µM and the “Log AC50 (M)” value is recorded as -5.1699 M. Also, in assay [2], the “CC-v2” value is listed as -1.2; the “Efficacy (difference between neutral response and maximum compound response)” value is listed as -50.634; the “Max Resp (difference between neutral response and compound response for highest compound concentration)” value was -54.42; the AC50 turned out to be 6.76e-06 M. Besides, the AC50 in assay [2] (setting [3]) is 6.76e-06 M.
In the case of `NC1(c2ccc(-c3nc4ccn5c(=O)[nH]nc5c4cc3-c3ccccc3)cc2)CCC1` [NCGC00186465-01], in assay [1], the AC50 was determined as 18.5 µM and the “Log AC50 (M)” value is listed as -4.7327 M. Further, in assay [2], the “CC-v2” value is given as -2.1; the “Efficacy (difference between neutral response and maximum compound response)” value was -117.339; the “Max Resp (difference between neutral response and compound response for highest compound concentration)” value is -99.979; the concentration at half-maximal activity (AC50) was determined as 1.85e-05 M. Moreover, in assay [2] (setting [3]), the AC50 was 1.85e-05 M.
Regarding `CCOC(CN1C(=O)[C@](CC(=O)Nc2ccc(C)cc2)(NC(=O)Nc2ccc(C)cc2)c2ccccc21)OCC` [NCGC00263225-01], in assay [1], the AC50 turned out to be 23.3 µM and the “Log AC50 (M)” value is -4.6327 M. In assay [2], the “CC-v2” value is -2.1; the “Efficacy (difference between neutral response and maximum compound response)” value is recorded as -106.258; the “Max Resp (difference between neutral response and compound response for highest compound concentration)” value was -97.88; the activity was half-maximal at 2.33e-05 M (AC50). Besides, the AC50 in assay [2] (setting [3]) was 2.33e-05 M.
For the compound `Cc1ccc(C(N)=O)cc1Nc1nccc(-c2cn(C(C)C)c3cnccc23)n1` [NCGC00263020-01], in assay [1], the concentration at half-maximal activity (AC50) is 7.37 µM and the “Log AC50 (M)” value is on record as -5.1327 M. Besides, in assay [2], the “CC-v2” value is given as -1.1; the “Efficacy (difference between neutral response and maximum compound response)” value is given as -104.089; the “Max Resp (difference between neutral response and compound response for highest compound concentration)” value is listed as -98.725; the AC50 worked out at 7.37e-06 M. The AC50 in assay [2] (setting [3]) was 7.37e-06 M.
Take `CCOC(=O)N1CCN(/[N+]([O-])=N/Oc2ccc([N+](=O)[O-])cc2C#N)CC1` [NCGC00346969-01]: in assay [1], half-maximal activity (AC50) was put at 3.29 µM and the “Log AC50 (M)” value is listed as -5.4827 M. In addition, in assay [2], the “CC-v2” value is recorded as -1.1; the “Efficacy (difference between neutral response and maximum compound response)” value is recorded as -94.201; the “Max Resp (difference between neutral response and compound response for highest compound concentration)” value was -99.104; the activity was half-maximal at 3.29e-06 M (AC50). Further, the AC50 in assay [2] (setting [3]) is 3.29e-06 M.
The compound `CC(C)(Sc1ccc(CCN(CCCCC2CCCCC2)C(=O)NC2CCCCC2)cc1)C(=O)O` [NCGC00015480-13] had an AC50 in assay [1] of 32.9 µM. Moreover, in assay [2], the “CC-v2” value was -2.2; the “Efficacy (difference between neutral response and maximum compound response)” value is -93.466; the “Max Resp (difference between neutral response and compound response for highest compound concentration)” value was -98.662; the activity was half-maximal at 3.29e-05 M (AC50). The half-maximal activity concentration (AC50) in assay [2] (setting [3]) is 3.29e-05 M.
Consider `CC(=O)c1c(C)c2cnc(Nc3ccc(N4CCNCC4)cn3)nc2n(C2CCCC2)c1=O` [NCGC00263129-04], for which, in assay [1], the concentration at half-maximal activity (AC50) was 16.5 µM and the “Log AC50 (M)” value is on record as -4.7827 M. In assay [2], the “CC-v2” value was -2.2; the “Efficacy (difference between neutral response and maximum compound response)” value was -88.43; the “Max Resp (difference between neutral response and compound response for highest compound concentration)” value is recorded as -70.898; half-maximal activity (AC50) was put at 1.65e-05 M. Moreover, the AC50 in assay [2] (setting [3]) was 1.65e-05 M.
Turning to `COC(=O)C1=C(C)NC(C)=C(C(=O)OCCN(C)Cc2ccccc2)C1c1cccc([N+](=O)[O-])c1` (stereo not shown) [NCGC00015747-03], in assay [1], the concentration at half-maximal activity (AC50) was 36.9 µM and the “Log AC50 (M)” value was -4.4327 M. For the same compound, in assay [2], the “CC-v2” value is listed as -3; the “Efficacy (difference between neutral response and maximum compound response)” value was -68.655; the “Max Resp (difference between neutral response and compound response for highest compound concentration)” value is listed as -54.296; half-maximal activity (AC50) was put at 3.69e-05 M. For the same compound, in assay [2] (setting [3]), the AC50 is 3.69e-05 M.
